ChEMBL document CHEMBL1201862, “PubChem BioAssay data set” (2004)
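Cells were grown in 96-well plates and exposed to each compound for 48 hours at five concentrations; endpoints were interpolated linearly between bracketing concentrations, or set to the highest concentration if not reached. At the GI50, growth is halved.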 Active and inactive are the calls of the source. Rule as the data show it: active = GI50 up to about 1.1 µM and inactive = higher.

Tests used:
Test in all cases: NCI anticancer screen, dose series, 48 h
UACC-62 = test system: UACC-62
NCI/ADR-RES = test system: NCI/ADR-RES
SK-MEL-5 = test system: SK-MEL-5
NCI-H460 = test system: NCI-H460
SK-MEL-2 = test system: SK-MEL-2
SNB-75 = test system: SNB-75
MOLT-4 = test system: MOLT-4
CCRF-CEM = test system: CCRF-CEM
HT-29 = test system: HT-29
SK-MEL-28 = test system: SK-MEL-28
LOX IMVI = test system: LOX IMVI
HCT-116 = test system: HCT-116
SW-620 = test system: SW-620
OVCAR-5 = test system: OVCAR-5
A498 = test system: A498
NCI-H23 = test system: NCI-H23
HL-60 = test system: HL-60
TK-10 = test system: TK-10
T47D = test system: T47D

Measured: GI50

O/N=C1\SC(=N\O)/C(=N/O)S\C1=N/O
inactive: UACC-62 94.8 µM | NCI/ADR-RES > 100 µM | SK-MEL-5 38.7 µM | NCI-H460 > 100 µM | SK-MEL-2 > 100 µM | SNB-75 > 100 µM | MOLT-4 > 100 µM | CCRF-CEM > 100 µM | HT-29 > 100 µM | SK-MEL-28 > 100 µM | LOX IMVI > 100 µM | HCT-116 68.4 µM | SW-620 > 100 µM | OVCAR-5 > 100 µM | A498 > 100 µM | NCI-H23 76.6 µM | HL-60 21 µM

C(=N\CCCN1CCN(CCC/N=C/c2cccc3ccccc23)CC1)/c1cccc2ccccc12
inactive: UACC-62 84.7 µM | NCI/ADR-RES 38.8 µM | SK-MEL-5 > 10 µM | NCI-H460 > 100 µM | TK-10 72.1 µM | SK-MEL-2 > 100 µM | SNB-75 29.9 µM | MOLT-4 39.4 µM | T47D > 100 µM | CCRF-CEM 52.7 µM | HT-29 45.3 µM | SK-MEL-28 56.4 µM | LOX IMVI 42.5 µM | HCT-116 27.7 µM | SW-620 64.9 µM | OVCAR-5 > 100 µM | NCI-H23 90.8 µM

O=c1c2cc(Br)cc(Br)c2nc(CCCl)n1-c1ccc(O)c([N+](=O)[O-])c1
inactive: UACC-62 22.5 µM | SK-MEL-5 20.1 µM | NCI-H460 21 µM | TK-10 18.5 µM | SK-MEL-2 18.9 µM | SNB-75 19.8 µM | MOLT-4 23.8 µM | CCRF-CEM 20.7 µM | HT-29 20.6 µM | SK-MEL-28 19.7 µM | HCT-116 14.7 µM | SW-620 19.4 µM | OVCAR-5 18.9 µM | A498 25.8 µM | NCI-H23 21.7 µM | HL-60 23.3 µM

COc1ccccc1C(=O)c1ccc2ccccc2c1
inactive: UACC-62 7.48 µM | NCI/ADR-RES 41.3 µM | SK-MEL-5 6.19 µM | NCI-H460 15.2 µM | TK-10 17.8 µM | SK-MEL-2 14.1 µM | SNB-75 38.2 µM | MOLT-4 4.34 µM | CCRF-CEM 20.2 µM | HT-29 16.7 µM | SK-MEL-28 39.3 µM | LOX IMVI 12.6 µM | HCT-116 39.7 µM | SW-620 8.3 µM | OVCAR-5 64.6 µM | NCI-H23 40 µM | HL-60 3.21 µM

Cc1ccc(NC(=O)C(=O)CC(=O)c2sc(Nc3c(C)cccc3C)nc2C)cc1C
inactive: UACC-62 > 100 µM | NCI/ADR-RES > 100 µM | SK-MEL-5 > 100 µM | NCI-H460 > 100 µM | TK-10 > 100 µM | SK-MEL-2 > 100 µM | MOLT-4 > 100 µM | T47D > 100 µM | CCRF-CEM > 100 µM | HT-29 > 100 µM | SK-MEL-28 > 100 µM | LOX IMVI > 100 µM | HCT-116 > 100 µM | SW-620 > 100 µM | OVCAR-5 > 100 µM | NCI-H23 > 100 µM | HL-60 55.2 µM

CN(C(=O)CC(=O)CP(=O)(c1ccccc1)c1ccccc1)c1ccccc1
inactive: UACC-62 > 100 µM | NCI/ADR-RES > 100 µM | SK-MEL-5 > 100 µM | NCI-H460 > 100 µM | TK-10 > 100 µM | SNB-75 > 100 µM | MOLT-4 > 100 µM | T47D > 100 µM | CCRF-CEM > 100 µM | HT-29 > 100 µM | SK-MEL-28 > 100 µM | HCT-116 > 100 µM | SW-620 > 100 µM | NCI-H23 > 100 µM | HL-60 > 100 µM

COc1cc2ccnc(-c3c4ccccc4c(N)c4c(OC)c(OC)ccc34)c2cc1OC
inactive: UACC-62 2.79 µM | SK-MEL-5 3.27 µM | NCI-H460 1.79 µM | TK-10 10.4 µM | SK-MEL-2 4.86 µM | MOLT-4 1.49 µM | CCRF-CEM 2.37 µM | HT-29 2.64 µM | SK-MEL-28 2.36 µM | LOX IMVI 1.52 µM | SW-620 2.28 µM | A498 3.02 µM | NCI-H23 3.21 µM | HL-60 1.39 µM

CC(=O)NNC(=O)C1CCCCN1 (stereo unspecified)
inactive: SK-MEL-5 > 100 µM | NCI-H460 > 100 µM | TK-10 > 100 µM | SK-MEL-2 > 100 µM | MOLT-4 > 100 µM | CCRF-CEM > 100 µM | HT-29 > 100 µM | SK-MEL-28 > 100 µM | LOX IMVI > 100 µM | HCT-116 > 100 µM | SW-620 > 100 µM | OVCAR-5 > 100 µM | A498 > 100 µM | NCI-H23 > 100 µM | HL-60 > 100 µM

CC(C)n1c(=O)[nH]n(-c2ccccc2)c1=O
inactive: UACC-62 > 100 µM | NCI/ADR-RES > 100 µM | SK-MEL-5 > 100 µM | NCI-H460 > 100 µM | TK-10 > 100 µM | SK-MEL-2 > 100 µM | SNB-75 > 100 µM | MOLT-4 > 100 µM | CCRF-CEM > 100 µM | HT-29 > 100 µM | SK-MEL-28 > 100 µM | LOX IMVI > 100 µM | HCT-116 > 100 µM | SW-620 > 100 µM | OVCAR-5 > 100 µM | A498 > 100 µM | NCI-H23 > 100 µM | HL-60 > 100 µM

CC(=O)Nc1ccccc1NC1CC(C)N(c2ccccc2)N1C(C)=O (stereo unspecified)
inactive: UACC-62 > 10 µM | SK-MEL-5 > 10 µM | TK-10 > 10 µM | SNB-75 > 10 µM | MOLT-4 > 10 µM | T47D > 10 µM | CCRF-CEM > 10 µM | HT-29 > 10 µM | SK-MEL-28 > 10 µM | SW-620 > 10 µM | NCI-H23 > 10 µM | HL-60 > 10 µM

Clc1cc2ncn(C3CCCO3)c2cc1Cl (stereo unspecified)
inactive: UACC-62 40.1 µM | NCI/ADR-RES 99.8 µM | SK-MEL-5 43.3 µM | TK-10 96.2 µM | SK-MEL-2 > 100 µM | SNB-75 26.4 µM | MOLT-4 54 µM | T47D 66.2 µM | CCRF-CEM > 100 µM | HT-29 68.4 µM | SK-MEL-28 > 100 µM | LOX IMVI 54.2 µM | HCT-116 78.5 µM | SW-620 98.2 µM | OVCAR-5 > 100 µM | NCI-H23 > 100 µM | HL-60 78.9 µM

Cn1cc(NC(=O)Nc2cc(C(=O)Nc3cc(C(=O)Nc4ccc(S(=O)(=O)O)c5cc(S(=O)(=O)O)ccc45)n(C)c3)n(C)c2)cc1C(=O)Nc1cc(C(=O)Nc2ccc(S(=O)(=O)O)c3cc(S(=O)(=O)O)ccc23)n(C)c1
inactive: UACC-62 > 100 µM | NCI/ADR-RES > 100 µM | SK-MEL-5 > 100 µM | NCI-H460 > 100 µM | TK-10 83.8 µM | SNB-75 > 100 µM | MOLT-4 > 100 µM | T47D > 100 µM | CCRF-CEM > 100 µM | HT-29 > 100 µM | SK-MEL-28 > 100 µM | HCT-116 > 100 µM | SW-620 > 100 µM | OVCAR-5 > 100 µM | NCI-H23 > 100 µM | HL-60 > 100 µM

O=C(CN1CCCC1)Nc1ccc2sc3ccccc3c(=O)c2n1
inactive: UACC-62 19.9 µM | NCI/ADR-RES 15.5 µM | SK-MEL-5 16.5 µM | NCI-H460 22 µM | TK-10 33 µM | SK-MEL-2 21.1 µM | SNB-75 19.7 µM | MOLT-4 1.91 µM | T47D 30.1 µM | CCRF-CEM 10.5 µM | HT-29 34 µM | SK-MEL-28 19.3 µM | LOX IMVI 11 µM | HCT-116 13.9 µM | SW-620 4.97 µM | OVCAR-5 24.4 µM | NCI-H23 24.2 µM | HL-60 > 10 µM

COC(=O)[C@H](Cc1ccccc1)NP(=O)(OCCC#N)OCC1OC(n2cc(C)c(=O)[nH]c2=O)CC1N=[N+]=[N-] (stereo partly specified)
inactive: UACC-62 > 100 µM | NCI/ADR-RES > 100 µM | SK-MEL-5 > 100 µM | NCI-H460 > 100 µM | TK-10 > 100 µM | SK-MEL-2 > 100 µM | SNB-75 > 100 µM | MOLT-4 > 100 µM | T47D > 100 µM | CCRF-CEM > 100 µM | HT-29 > 100 µM | LOX IMVI > 100 µM | HCT-116 > 100 µM | SW-620 > 100 µM | OVCAR-5 > 100 µM | NCI-H23 > 100 µM | HL-60 > 100 µM

CN1CC2CC(C1)c1cccc(=O)n1C2 (stereo unspecified)
inactive: UACC-62 > 100 µM | NCI/ADR-RES > 100 µM | SK-MEL-5 > 100 µM | NCI-H460 > 100 µM | TK-10 > 100 µM | SK-MEL-2 > 100 µM | SNB-75 > 100 µM | T47D > 100 µM | HT-29 > 100 µM | LOX IMVI > 100 µM | HCT-116 > 100 µM | OVCAR-5 > 100 µM | NCI-H23 > 100 µM

O=C1CSC(=S)N1 [RHODANINE]
inactive: NCI/ADR-RES > 100 µM | SK-MEL-5 > 100 µM | NCI-H460 > 100 µM | TK-10 > 100 µM | SK-MEL-2 > 100 µM | SNB-75 > 100 µM | MOLT-4 > 100 µM | T47D > 100 µM | CCRF-CEM > 100 µM | SK-MEL-28 > 100 µM | LOX IMVI > 100 µM | HCT-116 > 100 µM | SW-620 > 100 µM | OVCAR-5 > 100 µM | NCI-H23 > 100 µM | HL-60 > 100 µM

Cc1cn([C@H]2C=C[C@@H](CO)O2)c(=O)[nH]c1=O [STAVUDINE]
inactive: UACC-62 902 µM | NCI/ADR-RES 678 µM | SK-MEL-5 > 1000 µM | TK-10 583 µM | SK-MEL-2 > 1000 µM | SNB-75 796 µM | MOLT-4 > 1000 µM | T47D 473 µM | CCRF-CEM 469 µM | HT-29 > 1000 µM | LOX IMVI > 1000 µM | HCT-116 > 1000 µM | SW-620 418 µM | OVCAR-5 > 1000 µM | NCI-H23 776 µM | HL-60 348 µM
